US9394562B2, “Soil microorganism, novel oxidoreductase separated from the soil microorganism, gene encoding the oxidoreductase, and method for producing aglycones using the microorganism, the oxidoreductase and the gene” (AMOREPACIFIC CORPORATION, priority 2010, dated 2016)

Legend:
Assay type in all cases: biochemical
[1] = system: oxidoreductase enzyme derived from Rhizobium sp. GIN611; assay: Deglycosylation activity for flavonoid glycoside substrates by MALDI mass spectrometry; conditions: flavonoid glycoside as substrate
Description: After reacting using ginsenoside Rh2, ginsenoside F2, ginsenoside Rb1, ginsenoside Rb2, ginsenoside Rc, ginsenoside Rb3, ginsenoside F1, ginsenoside Re or the isoflavone daidzin as a substrate, followed by extraction by adding the same volume of ethyl acetate, the ethyl acetate layer was dried and then dissolved again in ethanol, which was subjected to activity measurement by MALDI mass spectrometry.
The oxidoreductase enzyme derived from Rhizobium sp. GIN611, whose expression was induced, was reacted with the flavonoid icariin, camelliaside A or camelliaside B as a substrate in the manner described above and activity was measured by MALDI mass spectrometry. Oxidation of galactose attached to camelliaside A and deglycosylation activity thereof were identified. Also, oxidation of xylose attached to camelliaside B and deglycosylation activity thereof were identified. That is to say, the enzyme was confirmed to show deglycosylation activity for sugars attached to the flavonoid-based aglycones and to capable of degrading not only glucose but also galactose and xylose by oxidizing them (see FIGS. 12 and 13).

[2] = system: deglycosylating enzyme isolated from the selected Rhizobium sp. GIN611; assay: Substrate specificity of deglycosylating enzyme isolated from Rhizobium sp. GIN611; conditions: ginsenoside as substrate
Description: Investigation of the substrate specificity using a deglycosylating enzyme isolated from the selected Rhizobium sp. […] The inventors of the present disclosure have disrupted and centrifuged the microorganism and produced a cell extract comprising the active enzyme from a supernatant.

[3] = system: oxidoreductase enzyme derived from Rhizobium sp. GIN611; assay: Substrate specificity for glycone binding (α-/β-bonding); conditions: nitrophenyl glycoside used as substrate of the enzyme
Description: Specificity of the enzyme for α-bonding and β-bonding was investigated using 4-nitrophenyl α-D-glucopyranoside, 4-nitrophenyl β-D-glucopyranoside, 4-nitrophenyl α-D-galactopyranoside and p-nitrophenyl β-D-galactopyranoside.

SMILES	Relative activity (%) [3]	also measured
C[C@@H]1O[C@@H](OC[C@H]2O[C@@H](Oc3c(-c4ccc(O)cc4)oc4cc(O)cc(O)c4c3=O)[C@H](O[C@@H]3O[C@H](CO)[C@H](O)[C@H](O)[C@H]3O)[C@@H](O)[C@@H]2O)[C@H](O)[C@H](O)[C@H]1O [camelliaside A, kaempferol 3-O-(2-O-galactopyranosyl-6-O-rhamnopyranosyl)glucopyranoside]		oxidation of attached sugar and deglycosylation activity [1]: identified
C[C@@H]1O[C@@H](OC[C@H]2O[C@@H](Oc3c(-c4ccc(O)cc4)oc4cc(O)cc(O)c4c3=O)[C@H](O[C@@H]3OC[C@@H](O)[C@H](O)[C@H]3O)[C@@H](O)[C@@H]2O)[C@H](O)[C@H](O)[C@H]1O [camelliaside B, kaempferol 3-O-(2-O-xylopyranosyl-6-O-rhamnopyranosyl)glucopyranoside]		oxidation of attached sugar and deglycosylation activity [1]: identified
CC(C)=CCC[C@](C)(O[C@@H]1O[C@H](CO)[C@@H](O)[C@H](O)[C@H]1O)[C@H]1CC[C@]2(C)[C@@H]1[C@H](O)C[C@@H]1[C@@]3(C)CC[C@H](O)C(C)(C)[C@@H]3CC[C@]12C [ginsenoside CK, 20-O-β-D-glucopyranosyl-20(S)-protopanaxadiol]		activity for substrate [2]: high activity
O=[N+]([O-])c1ccc(O[C@H]2O[C@H](CO)[C@H](O)[C@H](O)[C@H]2O)cc1 [p-Nitrophenyl α-D-galactopyranoside]	201%	

Continued, in another order:

Relative activity (%) [3]	SMILES	also measured
103%	O=[N+]([O-])c1ccc(O[C@H]2O[C@H](CO)[C@@H](O)[C@H](O)[C@H]2O)cc1 [p-Nitrophenyl α-D-glucopyranoside]	
400%	O=[N+]([O-])c1ccc(O[C@@H]2O[C@H](CO)[C@H](O)[C@H](O)[C@H]2O)cc1 [p-Nitrophenyl β-D-galactopyranoside]	
100%	O=[N+]([O-])c1ccc(O[C@@H]2O[C@H](CO)[C@@H](O)[C@H](O)[C@H]2O)cc1 [p-Nitrophenyl β-D-glucopyranoside]	
